Values belong to the molecule of their own block, whether it stands above or below them.
Assays:
[1] = Storage of crystal forms in a closed or open bottle at RT, conversion to hemihydrate by absorption of atmospheric water; assay type: physicochemical; conditions: sample kept in an open bottle
Source text: Another embodiment of the invention is a method for preparing a levofloxacin hemihydrate comprising storing one or more forms selected from the group consisting of Forms A, B, C, F, G, and H for an amount of time sufficient for the one or more forms to convert to a levofloxacin hemihydrate by the absorption of atomospheric water. For example, Forms A, B, C, F, G and H were converted to hemihydrate after 7-29 days of storing in a closed bottle at RT. The conversion to hemihydrate was faster (about 24 h) when keeping the sample in an open bottle.

[2] = ordinary relative humidity conditions; cited from earlier work
[3] = Exposure of wet material to the air at RT covered with paper, polymorph of the sample; assay type: physicochemical
Procedure: The wet material was exposed to the air at RT covered with paper (for protection).
A first portion of the wet material was stirred in 5 v of acetonitrile at 75° C. for 2 h, then filtrated under vacuum. The polymorphism of the wet sample was Hemihydrate. A second portion of the wet material was exposed to the air at RT covered with paper (for protection).
After a few hours the polymorph of the wet samples was Hemihydrate.

- time of conversion to hemihydrate [1]: about 24 h
Structure (SMILES): C[C@H]1COc2c(N3CCN(C)CC3)c(F)cc3c(=O)c(C(=O)O)cn1c23 [Form A, levofloxacin]

Structure (SMILES): C[C@H]1COc2c(N3CCN(C)CC3)c(F)cc3c(=O)c(C(=O)O)cn1c23 [Form γ, levofloxacin]
- form obtained after rapid adsorption of water vapor [2]: hemihydrate

Structure (SMILES): C[C@H]1COc2c(N3CCN(C)CC3)c(F)cc3c(=O)c(C(=O)O)cn1c23 [form α, levofloxacin]
- form obtained after rapid adsorption of water vapor [2]: monohydrate

- polymorph of the wet sample after exposure to the air ([3]; after 3, 6, 9 hours (Example 12)): Form G
- polymorph of the wet sample after exposure to the air ([3]; after 24 hours (Example 12)): hemihydrate polymorph
- polymorph of the wet sample after exposure to the air ([3]; after a few hours (Example 13)): Hemihydrate
Structure (SMILES): C[C@H]1COc2c(N3CCN(C)CC3)c(F)cc3c(=O)c(C(=O)O)cn1c23 [Form H, levofloxacin]

— patent US7629458B2, “Preparation of levofloxacin and hemihydrate thereof” (Teva Pharmaceutical Industries Ltd., priority 2001, dated 2009)
